Test results published in patent US20250027932A1, “DIFFERENTIATION OF HUMAN TISSUES WITHOUT CILIA FROM PLURIPOTENT STEM CELLS” (University of Washington, priority 2021, published 2025).

Assays:
Format in all cases: cell-based, human
[1] = tested on: kidney organoid cultures derived from control hPSCs; assay: Organoid lineage differentiation in control cultures (immunofluorescence, 96-wells); conditions: 1 μM SAG or 10 μM cyclopamine from day 1.5 to day 18
Method: (§1) Kidney organoids were generated as previously described (Freedman, B. S. et al. Modelling kidney disease with CRISPR-mutant kidney organoids derived from human pluripotent epiblast spheroids. Nat Commun 6, 8715 (2015)). Briefly, dissociated hPSCs were plated into 96 or 24 well plates coated with 1% Geltrex (Thermo Fisher) in mTeSR1 (STEMCELL Technologies) supplemented with 10 μM Rho-kinase inhibitor Y27632 (Tocris Bioscience). The next morning, mTeSR1 containing 1.5% Geltrex was added to the wells, and the media was changed again to mTeSR1 24 hours later. 72 hours after plating, cells were treated with 12 μM CHIR99021 (Stemgent) in RPMI medium containing 1× Glutamax (Thermo Fisher) with 2 ng/ml recombinant BMP-4 (Peprotech) to induce kidney differentiation. 36 hours after treatment, the medium was changed to RPMI supplemented with B27 (RB medium, Thermo Fisher). RB medium changes were performed every three days. When indicated, organoid cultures were supplemented with 1 μM SAG or 10 μM Cyclopamine (both from Cayman Chemical) starting with the first addition of RB on day 1.5 (36 hours after CHIR99021 treatment on day 0) and maintained thereafter in RB media containing these compounds at all subsequent time points.
(§2) Cells and organoid cultures were fixed with 4% paraformaldehyde (Electron Microscopy Sciences) for 15 minutes, washed 3 times with Phosphate buffered saline (PBS, Thermo Fisher), blocked for 1 hour with blocking buffer (5% normal donkey serum and 0.3% Triton X-100 in PBS), and incubated overnight with primary antibodies including mouse acetylated α-tubulin (Sigma T7451), rabbit acetylated α-tubulin (Cell Signaling, D20G3), α-fetoprotein (AFP) (R&D MAB1368), α-smooth muscle actin (SMA) (R&D MAB1420), ZO-1 (Invitrogen, 339100), E-Cadherin (Abcam, ab11512), Nephrin (R&D, AF4269), p-Histone H3 (Santa Cruz sc-8656-R), OCT4 (Abcam ab19857), brachyury (BRY) (Santa Cruz sc-17745), SOX2 (Abcam ab97959), and 3-Tubulin III (Tuj1) (Sigma-Aldrich T2200-200UL). After washing with PBS, secondary donkey antibodies conjugated with Alexa-Fluor 488, 555, or 647 (1:500, Thermo Fisher) were applied, or Fluorescein Lotus Lectin (Vector Labs, FL-1321), with DAPI to stain the nuclei. Stained cells were imaged in PBS using a Nikon AIR confocal microscope or Eclipse TE wide-field microscope.

[2] = tested on: hedgehog signaling (GLI3, GLI1) in control hPSC kidney organoid cultures; assay: GLI3 and GLI1 immunoblots of kidney organoid cultures from control hPSCs treated with hedgehog modulators
Method: (§3) KIF3A^−/−, KIF3B^−/− and isogenic control hPSCs were lysed with RIPA buffer containing protease and phosphatase inhibitors (Roche). Protein concentration was determined using a Pierce BCA protein assay kit. 50 μg of total protein was separated in a 4-20% acrylamide gel (Bio-Rad) and analyzed with silver stain (Bio-Rad) or transferred onto a PDVF membrane using standard procedures. 5% milk was used as a blocking agent prior to and during immunoblotting. Blots were probed with antibodies raised against PC1 (Santa Cruz sc-130554), PC2 (Santa Cruz sc-25749), KIF3A (Abcam ab11259), KIF3B (Cell Signaling 13817), […] (Cell Signaling 4970), FLOT1 (Cell Signaling 18634), IFT88 (Proteintech 13967-1-AP), ARL13B (Proteintech 17711-1-AP), GLI1 (Cell Signaling 3538), GLI2 (Abcam ab26056), PTCH1 (Cell Signaling 8358), ALIX (Cell Signaling 2171), ANXA5 (Cell Signaling 8555), GM130 (Cell Signaling 12480), HPS70 (Cell Signaling 4876), CD9 (Cell Signaling 13174), ICAM-1 (Cell Signaling 4915), and EpCAM (Cell Signaling 2626).
as §1
Fluorescence intensity analysis of BRY and OCT4 was performed on images processed and imaged identically, individual cells were identified automatically using Cell Profiler 2.0 and the average intensity per cell was plotted in BBP. Line scan analyses were conducted utilizing the Intensity Profile function in NIS Elements. A single line scan of equal length was performed on each structure, and subsequently these were averaged to generate the graphs, plotting pixel intensity values for each channel on the y-axis against the points along the line on the x-axis. Immunoblot band intensity levels were quantified using the ImageJ magic wand tool, normalized to the loading control, and pooled from multiple experiments to determine average and S.E.M. values. A two-tailed t-test for two samples with unequal variance was applied to determine significance. In cases where a treatment condition was applied, a paired t-test was performed. Statistical analyses were performed in GraphPad Prism 9 software.

[3] = tested on: hedgehog signaling (GLI3, GLI1) in KIF3A−/− and KIF3B−/− mutants; assay: GLI3 and GLI1 immunoblots of KIF3A−/− and KIF3B−/− kidney organoid cultures treated with hedgehog modulators; conditions: for GLI3/GLI1 response to prolonged treatment: day 18, 1 μM SAG or 10 μM cyclopamine starting on day 1.5
Method: as §3
Kidney organoids were generated as previously described (Freedman, B. S. et al. Modelling kidney disease with CRISPR-mutant kidney organoids derived from human pluripotent epiblast spheroids. Nat Commun 6, 8715 (2015)). Briefly, dissociated hPSCs were plated into 96 or 24 well plates coated with 1% Geltrex (Thermo Fisher) in mTeSR1 (STEMCELL Technologies) supplemented with 10 μM Rho-kinase inhibitor Y27632 (Tocris Bioscience). The next morning, mTeSR1 containing 1.5% Geltrex was added to the wells, and the media was changed again to mTeSR1 24 hours later. […]
(§4) Fluorescence intensity analysis of BRY and OCT4 was performed on images processed and imaged identically, individual cells were identified automatically using Cell Profiler 2.0 and the average intensity per cell was plotted in BBP. […] Immunoblot band intensity levels were quantified using the ImageJ magic wand tool, normalized to the loading control, and pooled from multiple experiments to determine average and S.E.M. values. […]

hPSCs = assay: OCT4 and BRY immunofluorescence in hPSCs after CHIR99021; conditions: increasing doses of CHIR99021 in mTeSR1 for 48 hours; kinesin-2 knockout hPSCs, no significant difference from controls
Method: as §2, with “Stained cells were imaged in PBS using a Nikon AIR confocal microscope or Eclipse TE wide-field microscope.” left out
as §4

GLI1 in EV of hPSCs = assay: GLI1 immunoblot of extracellular vesicles (EV) from hPSCs ±SAG; conditions: SAG stimulation
Method: KIF3A^−/−, KIF3B^−/− and isogenic control hPSCs were lysed with RIPA buffer containing protease and phosphatase inhibitors (Roche). Protein concentration was determined using a Pierce BCA protein assay kit. 50 μg of total protein was separated in a 4-20% acrylamide gel (Bio-Rad) and analyzed with silver stain (Bio-Rad) or transferred onto a PDVF membrane using standard procedures. 5% milk was used as a blocking agent prior to and during immunoblotting. […]
as §4

[4] = 1 μM SAG starting on day 1.5, by day 4 of differentiation
[5] = day 18, prolonged 16.5 day treatment, 1 μM SAG

SMILES	Neuron differentiation (TUJ1+) [1]	SOX2+ neuronal progenitor cells [1]	GLI3R ([2]; day 18, 10 μM cyclopamine starting on day 1.5)	GLI3/GLI1 response to prolonged treatment [3]	brachyury (BRY) immunofluorescence (hPSCs)	GLI1 in EV (GLI1 in EV of hPSCs; control or PKD1−/− hPSCs)	GLI1 in EV (GLI1 in EV of hPSCs; kinesin-2 knockouts)	Kidney organoid differentiation (nephron organoids per well) [1]	GLI1 levels [2, 4]	GLI3R levels [2, 4]	GLI1 [2, 5]	GLI3 [2, 5]	effect on GLI3 or GLI1 levels ([3]; 1 μM SAG starting on day 1.5)
CC1=C2C[C@H]3[C@@H](CC=C4C[C@@H](O)CC[C@@]43C)[C@@H]2CC[C@]12O[C@@H]1C[C@H](C)CN[C@H]1[C@H]2C [cyclopamine]	did not reach statistical significance	strong inhibitory effect	modestly increased	failed to respond									
Cc1c[nH]c(-c2cnc(NCCNc3ccc(C#N)cn3)nc2-c2ccc(Cl)cc2Cl)n1 [CHIR99021]					dose-dependent upregulation								
CNC1CCC(N(Cc2cccc(-c3ccncc3)c2)C(=O)c2sc3ccccc3c2Cl)CC1 (stereo not shown) [SAG]	significantly suppressed	increased		failed to respond		increased after SAG stimulation	undetectable	impaired	increased levels	reduced levels	upregulated	strongly downregulated	no detectable effect
